Source: patent US11174252B2, “Heterocyclic compounds as kinase inhibitors” (priority 2018, dated 2021)
Read-outs that look alike come from different tables or passages of the source.

Columns and labels:
FMS kinase = FMS kinase (Homo sapiens (Human), UniProt P07333); experiment: LanthaScreen kinase assay (ATP, fluorescent-PolyGT substrate, TR-FRET); format: biochemical
DU4475 = experiment: Cancer cell proliferation assay, single agent; format: cell-based; settings: Homo sapiens
MCF-7 = experiment: Cancer cell proliferation assay, single agent; format: cell-based; settings: Homo sapiens
CDK4 = CDK4 (Homo sapiens (Human), UniProt P11802); experiment: In vitro kinase inhibition, luminescence (ADP-Glo) with retinoblastoma substrate; format: biochemical
CDK6 = CDK6 (Homo sapiens (Human), UniProt Q00534); experiment: biochemical; format: biochemical
PI3Kδ kinase = PI3Kδ kinase (Homo sapiens (Human), UniProt O00329); experiment: PI3Kδ kinase ADP-Glo assay (Reaction Biology Corporation); settings: read-out: PI3Kδ IC50
[1] = DU-4475, DU4475 cells, treated for 24-168 hours, read-out: IC50 (nM) DU4475
[2] = MCF7, MCF-7 cells, treated for 24-168 hours, read-out: IC50 (nM) MCF-7
[3] = DU-4475, read-out: IC50 (nM) DU4475
[4] = MCF7, read-out: IC50 (nM) MCF-7

Sequence of CDK4 (P11802 whole entry): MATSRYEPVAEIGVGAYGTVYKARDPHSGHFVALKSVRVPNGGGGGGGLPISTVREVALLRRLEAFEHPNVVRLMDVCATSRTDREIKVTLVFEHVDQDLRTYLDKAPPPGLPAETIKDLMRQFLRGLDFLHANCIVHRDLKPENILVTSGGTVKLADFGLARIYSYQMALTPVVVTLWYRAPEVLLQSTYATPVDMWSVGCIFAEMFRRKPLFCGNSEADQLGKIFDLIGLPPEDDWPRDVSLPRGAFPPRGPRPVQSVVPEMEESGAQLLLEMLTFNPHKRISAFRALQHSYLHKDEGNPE
Sequence of CDK4 (P24385 whole entry partner): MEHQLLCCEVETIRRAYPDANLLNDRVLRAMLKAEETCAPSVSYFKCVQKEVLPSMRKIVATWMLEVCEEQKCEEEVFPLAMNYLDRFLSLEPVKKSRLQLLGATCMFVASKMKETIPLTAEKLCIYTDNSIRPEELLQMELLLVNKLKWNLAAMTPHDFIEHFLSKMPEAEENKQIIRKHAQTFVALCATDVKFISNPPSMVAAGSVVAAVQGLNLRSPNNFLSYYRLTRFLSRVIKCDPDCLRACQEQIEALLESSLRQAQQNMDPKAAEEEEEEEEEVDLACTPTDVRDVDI
Sequence of PI3Kδ kinase (O00329 whole entry): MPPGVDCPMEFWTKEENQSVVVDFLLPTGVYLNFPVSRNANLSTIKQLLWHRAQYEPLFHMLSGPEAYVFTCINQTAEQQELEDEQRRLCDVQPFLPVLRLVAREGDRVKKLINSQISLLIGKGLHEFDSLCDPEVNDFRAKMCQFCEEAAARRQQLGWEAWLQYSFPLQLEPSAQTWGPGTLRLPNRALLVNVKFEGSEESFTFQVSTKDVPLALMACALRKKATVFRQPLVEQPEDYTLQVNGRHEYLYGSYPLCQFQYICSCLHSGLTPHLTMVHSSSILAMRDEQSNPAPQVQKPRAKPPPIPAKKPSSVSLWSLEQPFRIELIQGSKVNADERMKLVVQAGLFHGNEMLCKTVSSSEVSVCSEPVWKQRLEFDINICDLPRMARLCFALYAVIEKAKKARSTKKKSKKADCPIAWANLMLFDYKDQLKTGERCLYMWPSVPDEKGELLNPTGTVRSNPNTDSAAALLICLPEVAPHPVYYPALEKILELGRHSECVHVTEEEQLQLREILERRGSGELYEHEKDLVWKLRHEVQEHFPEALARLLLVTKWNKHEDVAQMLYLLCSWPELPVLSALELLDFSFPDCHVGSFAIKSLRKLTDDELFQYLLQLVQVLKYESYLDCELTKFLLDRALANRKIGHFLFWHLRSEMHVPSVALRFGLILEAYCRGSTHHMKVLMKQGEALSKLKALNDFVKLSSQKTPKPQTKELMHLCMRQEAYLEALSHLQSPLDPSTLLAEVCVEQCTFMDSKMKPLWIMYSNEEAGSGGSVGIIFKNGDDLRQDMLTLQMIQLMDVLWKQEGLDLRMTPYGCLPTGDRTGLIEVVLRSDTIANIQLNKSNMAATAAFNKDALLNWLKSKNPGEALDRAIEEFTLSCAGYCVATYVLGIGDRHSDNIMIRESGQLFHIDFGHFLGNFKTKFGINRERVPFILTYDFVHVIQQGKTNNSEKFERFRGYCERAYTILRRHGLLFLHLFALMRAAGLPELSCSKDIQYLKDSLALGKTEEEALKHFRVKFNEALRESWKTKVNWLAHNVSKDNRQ
Sequence of PI3Kδ kinase (P27986 whole entry partner): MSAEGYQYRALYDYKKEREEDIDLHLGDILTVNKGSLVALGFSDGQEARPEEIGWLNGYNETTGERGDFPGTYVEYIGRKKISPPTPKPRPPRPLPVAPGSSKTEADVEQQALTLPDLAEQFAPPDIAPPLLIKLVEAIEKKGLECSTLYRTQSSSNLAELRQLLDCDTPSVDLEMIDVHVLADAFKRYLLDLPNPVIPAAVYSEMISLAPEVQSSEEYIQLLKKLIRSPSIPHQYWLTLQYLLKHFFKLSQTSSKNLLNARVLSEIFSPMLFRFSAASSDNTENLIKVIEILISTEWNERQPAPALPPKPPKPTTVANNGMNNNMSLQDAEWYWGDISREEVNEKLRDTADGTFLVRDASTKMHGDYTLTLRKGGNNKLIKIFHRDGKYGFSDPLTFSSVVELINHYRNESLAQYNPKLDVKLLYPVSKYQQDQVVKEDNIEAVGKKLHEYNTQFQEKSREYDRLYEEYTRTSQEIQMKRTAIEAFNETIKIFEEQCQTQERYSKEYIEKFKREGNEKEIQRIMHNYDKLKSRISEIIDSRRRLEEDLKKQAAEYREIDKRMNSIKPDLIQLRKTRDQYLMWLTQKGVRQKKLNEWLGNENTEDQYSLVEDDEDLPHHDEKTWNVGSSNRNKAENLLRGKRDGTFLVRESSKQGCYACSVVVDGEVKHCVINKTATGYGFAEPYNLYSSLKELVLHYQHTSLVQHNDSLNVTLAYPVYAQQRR
Sequence of FMS kinase (P07333 20-972): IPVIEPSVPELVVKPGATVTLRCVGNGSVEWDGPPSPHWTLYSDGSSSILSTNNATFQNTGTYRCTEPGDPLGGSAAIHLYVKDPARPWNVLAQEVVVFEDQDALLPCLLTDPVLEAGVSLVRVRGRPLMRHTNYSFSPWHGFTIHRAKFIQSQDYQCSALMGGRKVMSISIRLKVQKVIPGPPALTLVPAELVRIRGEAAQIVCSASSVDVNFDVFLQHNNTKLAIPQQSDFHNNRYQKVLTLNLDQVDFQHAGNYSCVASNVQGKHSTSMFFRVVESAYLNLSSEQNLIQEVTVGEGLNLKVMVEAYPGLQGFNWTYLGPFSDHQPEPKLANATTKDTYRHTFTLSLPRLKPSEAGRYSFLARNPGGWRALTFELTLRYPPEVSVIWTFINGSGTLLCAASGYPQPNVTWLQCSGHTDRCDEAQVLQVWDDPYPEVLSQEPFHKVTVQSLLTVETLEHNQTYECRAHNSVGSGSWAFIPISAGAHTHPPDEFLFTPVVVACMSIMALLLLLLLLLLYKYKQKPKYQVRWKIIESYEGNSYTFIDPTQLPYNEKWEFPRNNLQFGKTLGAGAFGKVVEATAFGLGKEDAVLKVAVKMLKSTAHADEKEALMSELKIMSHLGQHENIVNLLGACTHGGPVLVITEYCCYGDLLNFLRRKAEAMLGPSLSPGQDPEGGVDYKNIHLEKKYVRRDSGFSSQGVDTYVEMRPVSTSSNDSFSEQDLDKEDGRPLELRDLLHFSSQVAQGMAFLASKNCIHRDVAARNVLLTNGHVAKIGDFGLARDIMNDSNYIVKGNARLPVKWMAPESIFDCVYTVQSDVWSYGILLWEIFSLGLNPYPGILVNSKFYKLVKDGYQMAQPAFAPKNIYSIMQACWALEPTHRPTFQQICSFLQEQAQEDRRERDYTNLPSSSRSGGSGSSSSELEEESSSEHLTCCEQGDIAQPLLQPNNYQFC

Structure (SMILES)	IC50 (FMS kinase)	IC50 (DU4475; [1])	IC50 (MCF-7; [2])	IC50 (CDK4)	IC50 (CDK6)	IC50 (DU4475; [3])	IC50 (MCF-7; [4])	IC50 (PI3Kδ kinase)
CCN1CCN(C(=O)c2ccc(Nc3ncc(F)c(-c4cc(F)c5c(c4)N(C(C)C)CCO5)n3)cc2F)CC1 [Compound 464, (4-ethylpiperazin-1-yl)(2-fluoro-4-((5-fluoro-4-(8-fluoro-4-isopropyl-3,4-dihydro-2H-benzo[b][1,4]oxazin-6-yl)pyrimidin-2-yl)amino)phenyl)methanone]	42 nM	80 nM	85 nM	8.5 nM	22 nM			
CC(C)N1CCOc2c(F)cc(-c3nc(Nc4ccc(C(=O)N5CCOCC5)c(F)c4)ncc3F)cc21 [Compound 457, (2-fluoro-4-((5-fluoro-4-(8-fluoro-4-isopropyl-3,4-dihydro-2H-benzo[b][1,4]oxazin-6-yl)pyrimidin-2-yl)amino)phenyl)(morpholino)methanone]	68 nM	30 nM	55 nM	3.5 nM	7.5 nM			
CCN1CCN(Cc2ccc(Nc3ncc(F)c(-c4cc(F)c5c(c4)N(C(C)C)CCO5)n3)cc2F)CC1 [Compound 461, N-(4-((4-ethylpiperazin-1-yl)methyl)-3-fluorophenyl)-5-fluoro-4-(8-fluoro-4-isopropyl-3,4-dihydro-2H-benzo[b][1,4]oxazin-6-yl)pyrimidin-2-amine]	17 nM	50 nM	30 nM	3.5 nM	9 nM			
CC(C)N1CCOc2c(F)cc(-c3nc(Nc4ccc(C(=O)N5CCC(O)CC5)c(F)c4)ncc3F)cc21 [Compound 458, (2-fluoro-4-((5-fluoro-4-(8-fluoro-4-isopropyl-3,4-dihydro-2H-benzo[b][1,4]oxazin-6-yl)pyrimidin-2-yl)amino)phenyl)(4-hydroxypiperidin-1-yl)methanone]	29 nM		30 nM	0.5 nM	10 nM	35 nM		
CC(C)N1CCOc2c(F)cc(-c3nc(Nc4ccc(C(=O)N5CCC(N(C)C)CC5)c(F)c4)ncc3F)cc21 [Compound 463, (4-(dimethylamino)piperidin-1-yl)(2-fluoro-4-((5-fluoro-4-(8-fluoro-4-isopropyl-3,4-dihydro-2H-benzo[b][1,4]oxazin-6-yl)pyrimidin-2-yl)amino)phenyl)methanone]	17 nM	25 nM	20 nM	1.5 nM	3.5 nM			
CC(C)N1CCOc2c(F)cc(-c3nc(Nc4ccc(N5CCC(N)CC5)cn4)ncc3F)cc21 [Compound 788, N-(5-(4-aminopiperidin-1-yl)pyridin-2-yl)-5-fluoro-4-(8-fluoro-4-isopropyl-3,4-dihydro-2H-benzo[b][1,4]oxazin-6-yl)pyrimidin-2-amine]			130 nM	2 nM	4 nM	920 nM		
CC(C)N1CCOc2c(F)cc(-c3nc(Nc4ccc(C(N)=O)cn4)ncc3F)cc21 [Compound 521, 6-((5-fluoro-4-(8-fluoro-4-isopropyl-3,4-dihydro-2H-benzo[b][1,4]oxazin-6-yl)pyrimidin-2-yl)amino)nicotinamide]		7700 nM	3670 nM	5.5 nM	19.8 nM			
CCN1CCC(c2ccc(Nc3ncc(F)c(-c4cc(F)c5c(c4)N(C(C)C)CCO5)n3)nc2)CC1 [Compound 501, N-(5-(1-ethylpiperidin-4-yl)pyridin-2-yl)-5-fluoro-4-(8-fluoro-4-isopropyl-3,4-dihydro-2H-benzo[b][1,4]oxazin-6-yl)pyrimidin-2-amine]				2 nM	5 nM	1020 nM	140 nM	
CC(C)N1CCOc2c(F)cc(-c3nc(Nc4cnn(C5CCNCC5)c4)ncc3F)cc21 [Compound 448, 5-fluoro-4-(8-fluoro-4-isopropyl-3,4-dihydro-2H-benzo[b][1,4]oxazin-6-yl)-N-(1-(piperidin-4-yl)-1H-pyrazol-4-yl)pyrimidin-2-amine]	8 nM		50 nM	3.2 nM				8020 nM
CC(C)N1CCOc2c(F)cc(-c3nc(Nc4ccc(N5CCSCC5)c(F)c4)ncc3F)cc21 [Compound 469, 5-fluoro-4-(8-fluoro-4-isopropyl-3,4-dihydro-2H-benzo[b][1,4]oxazin-6-yl)-N-(3-fluoro-4-thiomorpholinophenyl)pyrimidin-2-amine]	46 nM		495 nM					> 30000 nM
CC1CN(c2ccc(Nc3ncc(F)c(-c4cc(F)c5c(c4)N(C(C)C)CCO5)n3)nc2)CC(C)O1 (stereo not drawn) [Compound 515, N-(5-(2,6-dimethylmorpholino)pyridin-2-yl)-5-fluoro-4-(8-fluoro-4-isopropyl-3,4-dihydro-2H-benzo[b][1,4]oxazin-6-yl)pyrimidin-2-amine]		> 10000 nM	2500 nM	145 nM	> 200 nM			
CC(C)N1CCOc2c(F)cc(-c3nc(Nc4ccc(N5CCNCC5)nc4)ncc3F)cc21 [Compound 23, 5-fluoro-4-(8-fluoro-4-isopropyl-3,4-dihydro-2H-benzo[b][1,4]oxazin-6-yl)-N-(6-(piperazin-1-yl)pyridin-3-yl)pyrimidin-2-amine]	25 nM						< 10 nM	4880 nM
CC(C)N1CCOc2c(F)cc(-c3nc(Nc4ccc(C5CCN(C)CC5)nn4)ncc3F)cc21 [Compound 517, N-(5-fluoro-4-(8-fluoro-4-isopropyl-3,4-dihydro-2H-benzo[b][1,4]oxazin-6-yl)pyrimidin-2-yl)-6-(1-methylpiperidin-4-yl)pyridazin-3-amine]		275 nM	108 nM	1.5 nM	4 nM			
CC(C)N1CCOc2c(F)cc(-c3nc(Nc4ccc(CN5CCC(N(C)C)CC5)c(F)c4)ncc3F)cc21 [Compound 462, N-(4-((4-(dimethylamino)piperidin-1-yl)methyl)-3-fluorophenyl)-5-fluoro-4-(8-fluoro-4-isopropyl-3,4-dihydro-2H-benzo[b][1,4]oxazin-6-yl)pyrimidin-2-amine]	25 nM	65 nM	40 nM	5.5 nM	9 nM			
CC(C)N1CCOc2c(F)cc(-c3nc(Nc4ccc(CN5CCN(C)CC5)c(F)c4)ncc3F)cc21 [Compound 792, 5-fluoro-N-(3-fluoro-4-((4-methylpiperazin-1-yl)methyl)phenyl)-4-(8-fluoro-4-isopropyl-3,4-dihydro-2H-benzo[b][1,4]oxazin-6-yl)pyrimidin-2-amine]			32 nM	4 nM	4 nM	75 nM		
Cc1nc(Nc2ncc(F)c(-c3cc(F)c4c(c3)N(C(C)C)CCO4)n2)ccc1C1CCN(C)CC1 [Compound 503, 5-fluoro-4-(8-fluoro-4-isopropyl-3,4-dihydro-2H-benzo[b][1,4]oxazin-6-yl)-N-(6-methyl-5-(1-methylpiperidin-4-yl)pyridin-2-yl)pyrimidin-2-amine]		1260 nM	240 nM	5 nM	18 nM			
CC(C)N1CCOc2c(F)cc(-c3nc(Nc4ccc(S(=O)(=O)NC5CCNCC5)cc4)ncc3F)cc21 [Compound 791, 4-((5-fluoro-4-(8-fluoro-4-isopropyl-3,4-dihydro-2H-benzo[b][1,4]oxazin-6-yl)pyrimidin-2-yl)amino)-N-(piperidin-4-yl)benzenesulfonamide]		205 nM	90 nM	9 nM	41 nM			
